# Results published in the NIST ThermoML archive (doi:10.1016/j.jct.2012.04.016).
# Numbers after ± are expanded uncertainties.
# Settings: Liquid; Ebulliometric method (Recirculating still)
row,Normal boiling temperature,SMILES
1,169.30 ± 0.22 °C,"Cc1ccc(C)c(C)c1 [1,2,4-trimethylbenzene]"
2,240.0 ± 0.21 °C,O=CN1CCOCC1 [N-formylmorpholine]
3,136.20 ± 0.21 °C,CCc1ccccc1 [ethylbenzene]

# Second part, the compound before the results:
row,SMILES,Normal boiling temperature
1,CCCCc1ccccc1 [butylbenzene],183.2 ± 0.22 °C
2,CC(C)c1ccccc1 [isopropylbenzene],152.40 ± 0.22 °C
